Results from US6355799B1, “Substituted benzene compounds, process for their preparation, and herbicidal and defoliant compositions containing them” (ISK Americas Incorporated, priority 1997, dated 2002).

Experiments:
Format in all cases: in vivo
[1] = system: johnsongrass (Sorghum halepense, SORHA); experiment: Pre-emerge test, greenhouse herbicide activity screening; conditions: pre-emerge, phytotoxicity rating 0-100 at 14 days after application
Procedure, shortened: (§1)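 Herbicidal damage is scored 0 (none) to 100 (complete plant death) two weeks after a simulated field spray. Rates span 15–1000 g ai/ha, delivered in acetone at 187 l/ha. For post-emergence treatments, plants have 2–3 leaves and the spray carries 0.25% v/v non-ionic surfactant.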

[2] = system: barnyardgrass (Echinochloa crus-galli, ECHCG); experiment: as above; conditions: pre-emerge, phytotoxicity rating 0-100 at 14 days after application
Procedure, shortened: as §1

[3] = system: sicklepod (Cassia obtusifolia, CASOB); experiment: as above; conditions: pre-emerge, phytotoxicity rating 0-100 at 14 days after application
Procedure, shortened: as §1

[4] = system: green foxtail (Setaria viridis, SETVI); experiment: as above; conditions: pre-emerge, phytotoxicity rating 0-100 at 14 days after application
Procedure, shortened: as §1

[5] = system: velvetleaf (Abutilon theophrasti, ABUTH); experiment: as above; conditions: pre-emerge, phytotoxicity rating 0-100 at 14 days after application
Procedure, shortened: as §1

[6] = system: large crabgrass (Digitaria sanguinalis, DIGSA); experiment: as above; conditions: pre-emerge, phytotoxicity rating 0-100 at 14 days after application
Procedure, shortened: as §1

[7] = system: ivyleaf morningglory (Ipomoea hederacea, IPOHE); experiment: as above; conditions: pre-emerge, phytotoxicity rating 0-100 at 14 days after application
Procedure, shortened: as §1

[8] = system: lambsquarters (Chenopodium album, CHEAL); experiment: as above; conditions: pre-emerge, phytotoxicity rating 0-100 at 14 days after application
Procedure, shortened: as §1

[9] = system: field corn (Zea mays L., var. Dekalb 535, CORN); experiment: Post-emerge test, crop safety; conditions: post-emerge, crop damage rating 0-100 at 14 days after application
Procedure, shortened: as §1

[10] = system: upland rice (Oryza sp., var. Tebonnet, RICE); experiment: Post-emerge test, crop safety; conditions: post-emerge, crop damage rating 0-100 at 14 days after application
Procedure, shortened: as §1

[11] = system: field corn (Zea mays L., var. Dekalb 535, CORN); experiment: Pre-emerge test, crop safety; conditions: crop damage, pre-emerge, phytotoxicity rating 0-100 at 14 days after application
Procedure, shortened: (§2)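 Compounds in acetone were track-sprayed at 187 l/ha, 15–1000 g ai/ha, onto sandy loam pots. Pre-emerge seeds were sown one day before spraying, with surface watering afterwards. Post-emerge plants were at the 2–3 leaf stage and sprayed with 0.25% v/v non-ionic surfactant. Injury was rated 0–100 at 14 days.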

[12] = system: upland rice (Oryza sp., var. Tebonnet, RICE); experiment: Pre-emerge test, crop safety; conditions: crop damage, pre-emerge, phytotoxicity rating 0-100 at 14 days after application
Procedure, shortened: as §2

[13] = system: johnsongrass (Sorghum halepense, SORHA); experiment: Post-emerge test, greenhouse herbicide activity screening; conditions: post-emerge, phytotoxicity rating 0-100 at 14 days after application
Procedure, shortened: (§3)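 Compounds in acetone were track-sprayed at 15-1000 g ai/ha (187 l/ha) on sandy loam pots: pre-emerge one day after seeding, post-emerge at 2-3 leaf stage with 0.25% v/v non-ionic surfactant. Phytotoxicity was rated 14 days later on a 0 (no damage) to 100 (complete death) scale.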

[14] = system: barnyardgrass (Echinochloa crus-galli, ECHCG); experiment: as above; conditions: post-emerge, phytotoxicity rating 0-100 at 14 days after application
Procedure, shortened: as §3

[15] = system: sicklepod (Cassia obtusifolia, CASOB); experiment: as above; conditions: post-emerge, phytotoxicity rating 0-100 at 14 days after application
Procedure, shortened: as §3

[16] = system: redroot pigweed (Amaranthus retroflexus, AMARE); experiment: as above; conditions: post-emerge, phytotoxicity rating 0-100 at 14 days after application
Procedure, shortened: as §3

[17] = system: green foxtail (Setaria viridis, SETVI); experiment: as above; conditions: post-emerge, phytotoxicity rating 0-100 at 14 days after application
Procedure, shortened: as §3

[18] = system: velvetleaf (Abutilon theophrasti, ABUTH); experiment: as above; conditions: post-emerge, phytotoxicity rating 0-100 at 14 days after application
Procedure, shortened: as §3

[19] = system: large crabgrass (Digitaria sanguinalis, DIGSA); experiment: as above; conditions: post-emerge, phytotoxicity rating 0-100 at 14 days after application
Procedure, shortened: as §3

[20] = system: ivyleaf morningglory (Ipomoea hederacea, IPOHE); experiment: as above; conditions: post-emerge, phytotoxicity rating 0-100 at 14 days after application
Procedure, shortened: as §3

[21] = system: lambsquarters (Chenopodium album, CHEAL); experiment: as above; conditions: post-emerge, phytotoxicity rating 0-100 at 14 days after application
Procedure, shortened: as §3

[22] = system: redroot pigweed (Amaranthus retroflexus, AMARE); experiment: Pre-emerge test, greenhouse herbicide activity screening; conditions: pre-emerge, phytotoxicity rating 0-100 at 14 days after application
Procedure, shortened: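 Visual ratings on a 0-100 scale (0 no damage, 100 all plants dead) were taken at 14 days after treatment. Rates of 15-1000 g ai/ha in acetone, 187 l/ha, were sprayed onto soil one day after planting (pre-emerge) or onto 2-3 leaf plants with 0.25% v/v surfactant (post-emerge).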

COc1c(Cl)cc(F)c(-n2c(=O)n3n(c2=O)CCCC3)c1NC(=O)c1ccc(F)cc1F [9-16]
Pre-emerge Herbicidal Activity SORHA ([1]; rate 63 g ai/ha): 10
Pre-emerge Herbicidal Activity SORHA ([1]; rate 250 g ai/ha): 40
Pre-emerge Herbicidal Activity ECHCG ([2]; rate 63 g ai/ha): 0
Pre-emerge Herbicidal Activity ECHCG ([2]; rate 250 g ai/ha): 40
Pre-emerge Herbicidal Activity CASOB ([3]; rate 63 g ai/ha): 20
Pre-emerge Herbicidal Activity CASOB ([3]; rate 250 g ai/ha): 60
Pre-emerge Herbicidal Activity SETVI ([4]; rate 63 g ai/ha): 39
Pre-emerge Herbicidal Activity SETVI ([4]; rate 250 g ai/ha): 70
Pre-emerge Herbicidal Activity ABUTH ([5]; rate 63 g ai/ha): 100
Pre-emerge Herbicidal Activity ABUTH ([5]; rate 250 g ai/ha): 100
Pre-emerge Herbicidal Activity DIGSA ([6]; rate 63 g ai/ha): 10
Pre-emerge Herbicidal Activity DIGSA ([6]; rate 250 g ai/ha): 40
Pre-emerge Herbicidal Activity IPOHE ([7]; rate 63 g ai/ha): 70
Pre-emerge Herbicidal Activity IPOHE ([7]; rate 250 g ai/ha): 70
Pre-emerge Herbicidal Activity CHEAL ([8]; rate 63 g ai/ha): 100
Pre-emerge Herbicidal Activity CHEAL ([8]; rate 250 g ai/ha): 100
Post-emerge Herbicidal Activity CORN ([9]; 63 g ai/ha): 5
Post-emerge Herbicidal Activity CORN ([9]; 250 g ai/ha): 65
Post-emerge Herbicidal Activity RICE ([10]; 63 g ai/ha): 30
Post-emerge Herbicidal Activity RICE ([10]; 250 g ai/ha): 70
Pre-emerge Herbicidal Activity CORN ([11]; rate 63 g ai/ha): 0
Pre-emerge Herbicidal Activity CORN ([11]; rate 250 g ai/ha): 90
Pre-emerge Herbicidal Activity RICE ([12]; rate 63 g ai/ha): 80
Pre-emerge Herbicidal Activity RICE ([12]; rate 250 g ai/ha): 90
Post-emerge Herbicidal Activity SORHA ([13]; 63 g ai/ha): 0
Post-emerge Herbicidal Activity SORHA ([13]; 250 g ai/ha): 0
Post-emerge Herbicidal Activity ECHCG ([14]; 63 g ai/ha): 0
Post-emerge Herbicidal Activity ECHCG ([14]; 250 g ai/ha): 10
Post-emerge Herbicidal Activity CASOB ([15]; 63 g ai/ha): 50
Post-emerge Herbicidal Activity CASOB ([15]; 250 g ai/ha): 85
Post-emerge Herbicidal Activity AMARE ([16]; 63 g ai/ha): 30
Post-emerge Herbicidal Activity AMARE ([16]; 250 g ai/ha): 75
Post-emerge Herbicidal Activity SETVI ([17]; 63 g ai/ha): 0
Post-emerge Herbicidal Activity SETVI ([17]; 250 g ai/ha): 20
Post-emerge Herbicidal Activity ABUTH ([18]; 63 g ai/ha): 100
Post-emerge Herbicidal Activity ABUTH ([18]; 250 g ai/ha): 100
Post-emerge Herbicidal Activity DIGSA ([19]; 63 g ai/ha): 10
Post-emerge Herbicidal Activity DIGSA ([19]; 250 g ai/ha): 0
Post-emerge Herbicidal Activity IPOHE ([20]; 63 g ai/ha): 90
Post-emerge Herbicidal Activity IPOHE ([20]; 250 g ai/ha): 100
Post-emerge Herbicidal Activity CHEAL ([21]; 63 g ai/ha): 65
Post-emerge Herbicidal Activity CHEAL ([21]; 250 g ai/ha): 80
Pre-emerge Herbicidal Activity AMARE ([22]; rate 63 g ai/ha): 70
Pre-emerge Herbicidal Activity AMARE ([22]; rate 250 g ai/ha): 100
